{"source": "patent US7629004B2", "about": "“Composition and process for removing and preventing mildew and fungal growth” (priority 2005, dated 2009)", "origin": "cited, not measured here", "tested_on": "fungi", "conditions": "fungal contamination of aircraft interior surfaces"}
{"smiles": "CC(C)O", "note": "[isopropyl alcohol]", "values": [{"measurement": "Effectiveness of approved military cleaning procedure", "result": "ineffective"}]}
